Holding throughout (assay type): in vivo, C57BL/6N mice
The test system of one data set is TNF-α. Nature of the data set: Inhibitory effect on TNF-α in alcoholic steatosis mice. Conditions: liver tissue, vs alcohol-fed group (FIG. 12A). The procedure:
The level of TNF-α in liver tissue was measured by using RT-PCR and ELISA as described above in Example 2-7 to analyze whether the amount of TNF-α induced by alcohol was reduced due to treatment of quercetin-3-O-β-D-xylopyranoside.
A commercially available ELISA kit purchased from R&D Systems (Minneapolis, Minn.) was used.

The test system of a further data set is adiponectin. Nature of the data set: Effect on recovering adiponectin in alcoholic steatosis mice. The settings on record: alcohol+compound group vs alcohol-fed group (FIG. 13). As for the experimental part:
Adiponectin, which is a major anti-inflammatory agent, is an adipose tissue-derived adipokine. […] Thus, a plasma level of adiponectin was analyzed by ELISA to evaluate the effect of quercetin-3-O-β-D-xylopyranoside on regulation of the adiponectin content.
Specifically, the plasma level of adiponectin was analyzed by using RT-PCR and ELISA in the same manner as the measurement of the TNF-α level in liver tissue as described above in Example 2-8.

For the next data set, the system named is MCP-1. Nature of the data set: mRNA level of MCP-1 by RT-PCR. Conditions: alcohol+compound group vs alcohol-fed group (FIG. 14). From the text: Monocyte chemoattractant protein 1 (MCP-1), called chemokine ligand 2 (CCL2), is one of the key chemokines that regulate pathogeneses of several diseases caused by monocyte infiltration. Meanwhile, interleukin 1 beta (IL1β), also known as a leukocytic endogenous mediator and a lymphocyte activating factor, is a member of the interleukin 1 family of cytokines. The cytokines are produced by activated macrophages at a damaged region of tissue.
Specifically, mRNA levels of MCP-1 and IL-1β were analyzed by using RT-PCR as described above in Example 2-8.

The nature of data set [1]: Body weight, feed intake and excised organ weight of alcoholic steatosis-induced mice. Conditions: 1 mg/kg oral 10 days; conclusion from body and organ weights. The procedure: (§1) 8-week-old C57BL/6N mice were purchased from DAEHAN BIOLINK to be used for efficacy evaluation and quarantined and acclimated in a vivarium of HONGCHEON INSTITUTE OF MEDICAL HERB for 7 days (relative temperature: 23±2° C., relative humidity: 50±5%, and a 12 h light-dark cycle) prior to the start of experimentation. Among them, 18 male mice with no abnormal symptoms were selected and used.
During a liquid diet adaptation period, a control group was restrictedly fed with a Lieber-DeCarli'82 control liquid diet (F1259SP, Bio-serv), and an alcohol-fed group was restrictedly fed with a Lieber-DeCarli'82 ethanol liquid diet (F1258SP, Bio-serv) using a Liquid diet feeding tube (9019, Bio-serv), and the diets were replaced with new ones at a preset time between 3 P.M. and 5 P.M.
After 5 days of the liquid diet adaptation period, the mice were orally administered with 1 mg/kg of quercetin-3-O-β-D-xylopyranoside (test substance) for 10 days and fed with a 5% alcohol liquid diet. At 11th day, between 7 A.M. and 9 A.M., a group not fed with alcohol (hereinafter referred to as Pair-fed group) was orally administered with a 45% maltose dextrin solution, and a group fed with a 5% liquid diet (hereinafter referred to as EtOH-fed) and a group administered with a test substance (hereinafter referred to as EtOH+B group) were orally fed with 31.5% ethanol.
2-1. […]

Another data set concerns ApoB gene. Nature of the data set: Real-time PCR of lipid metabolism gene expression in liver: ApoB. Conditions: liver mRNA, relative to Pair-fed group; EtOH+B group, 1 mg/kg oral 10 days (FIG. 11). As for the experimental part: as §1
(§2) During a liquid diet adaptation period, a control group was restrictedly fed with a Lieber-DeCarli'82 control liquid diet (F1259SP, Bio-serv), and an alcohol-fed group was restrictedly fed with a Lieber-DeCarli'82 ethanol liquid diet (F1258SP, Bio-serv) using a Liquid diet feeding tube (9019, Bio-serv), and the diets were replaced with new ones at a preset time between 3 P.M. and 5 P.M. […]
(§3) Real-time quantitative PCR was performed using a 7500 Real-time Thermal Cycler (Applied Biosystems, USA) with SYBR Green (Applied Biosystems, USA) to measure gene expression. […]
(§4) PCR amplification steps as described below were repeated for up to 40 cycles. […] Values were recorded after extension at every cycle.
(§5) After completion of all cycles, melting curve analysis was carried out to verify specificity of the primers. The results were analyzed using the One step system software v2.1 provided by Applied Biosystems.
In general terms: Quantitative PCR measures a nucleic acid by following its amplification.

The test system of another data set is Fas gene. Nature of the data set: Real-time PCR of lipid metabolism gene expression in liver: Fas. Conditions: liver mRNA, relative to Pair-fed group; EtOH+B group, 1 mg/kg oral 10 days (FIG. 11). As for the experimental part: as §1, §2, §3, §4, §5
The subject of a further data set is p-AMPKα. The data set is described as follows: Western blot of p-AMPKα in liver tissue. The procedure:
Expression of p-AMPKα, p-ACC, and CPT-1, which regulate intrahepatic lipid metabolism, was analyzed by western blot analysis to understand the mechanism involved in pathogenesis of alcoholic steatosis in detail. The specific western blot analysis method is as follows.
First, a mouse liver homogenate was prepared by using a RIPA buffer solution including a protease and tyrosine phosphatase inhibitor cocktail (Sigma). Protein concentrations of lysates were determined using a Bicinchoninic (BCA) Protein Assay Kit (Thermo Scientific, IL, USA) according to the manufacturer's instructions. Isolated soluble proteins ([…]) were separated on an 8% to 15% SDS-polyacrylamide gel. The separated proteins were electroblotted on a nitrocellulose transfer membrane (Bio-Rad, Hercules, Calif., USA). The membrane was incubated with 5% non-fat dry milk for 1 hour and then probed for antigens using antibodies diluted to 1:1,000, and was incubated with anti-pAMPKα, anti-AMPKα, anti-PACC, anti-ACC, anti-CYP2E1, anti-CPT1a (Cell Signaling Technology), and anti-β-actin (Santa Cruz Biotechnology) at 4° C. for 18 hours. […] Band density was measured using ImageJ (National Institutes of Health, Bethesda, Md., USA) and expressed as a multiple relative to β-actin.
In general terms: A western blot detects proteins with antibodies after separation by electrophoresis.

Take `O=c1c(O[C@@H]2OC[C@@H](O)[C@H](O)[C@H]2O)c(-c2ccc(O)c(O)c2)oc2cc(O)cc(O)c12` [quercetin-3-O-β-D-xylopyranoside]: the “expression level of RNA of TNF-α” value in the data set with TNF-α (1 mg/kg) and in the data set with TNF-α (10 mg/kg) was “significantly inhibited” throughout. Further, in the data set on adiponectin, the plasma adiponectin level result is given as “significantly recovered”. For the same compound, the “mRNA level of MCP-1” value in the data set on MCP-1 was “significantly reduced”. Also, the “toxicity to mice and internal organs” value in data set [1] was “no toxicity”. Further, the “expression level of the ApoB gene” value with ApoB gene stood at 0.8 times. Besides, the “expression level of the Fas gene” value in the data set with Fas gene came out at 1.1 times. Also, in the data set on p-AMPKα (10 mg/kg (FIGS. 16A and 16B)), the “expression level of pAMPK” value is “significantly increased”. Further, the “expression levels of AMPK protein” value in the data set on p-AMPKα (among the groups (FIGS. 16A and 16B)) is given as “no difference”.
